Earlier results as cited in paper PMC11938273 (Journal of Chemical Information and Modeling, 2025).
*1 amine or outer side, *2 acyl side, *3 side chain or, on linkers, in order; H or OH if unused. Where a SMILES comes first, the peptide text is derived from it. Bridges are numbered along the chain shown (N, C = ends). Roman numbers before positions name the chains, in order. [ ]: non-standard residue; d: D form. Actinocin(9to1) = Cc1c2oc3c(C)ccc(C(=O)[*:1])c3nc-2c(C(=O)[*:2])c(N)c1=O; NMeV = CN[C@H](C(=O)O)C(C)C; Sar = CNCC(=O)O

Conditions: in vivo; cited from earlier work

Compound: CC[C@H]1OC(=O)[C@H](C)[C@@H](O[C@H]2C[C@@](C)(OC)[C@@H](O)[C@H](C)O2)[C@H](C)[C@@H](O[C@@H]2O[C@H](C)C[C@H](N(C)C)[C@H]2O)[C@](C)(OC)C[C@@H](C)C(=O)[C@H](C)[C@@H](O)[C@]1(C)O (mixture of isomers) [Clarithromycin, rac-(3R,4S,5S,6R,7R,9R,11R,12R,13S,14R)-6-(((2S,3R,4S,6R)-4-(dimethylamino)-3-hydroxy-6-methyltetrahydro-2H-pyran-2-yl)oxy)-14-ethyl-12,13-dihydroxy-4-(((2R,4R,5S,6S)-5-hydroxy-4-methoxy-4,6-dimethyltetrahydro-2H-pyran-2-yl)oxy)-7-methoxy-3,5,7,9,11,13-hexamethyloxacyclotetradecane-2,10-dione]
- CNS status: Negative

Compound: CCC(C)CCCC(=O)N[C@H](CCN)C(=O)N[C@@H](C(=O)N[C@H](CCN)C(=O)N[C@@H]1CCNC(=O)[C@H]([C@H](C)O)NC(=O)[C@@H](CCN)NC(=O)[C@@H](CCN)NC(=O)[C@@H](CC(C)C)NC(=O)[C@H](CC(C)C)NC(=O)[C@@H](CCN)NC1=O)[C@H](C)O (mixture of isomers) [Colistin, rac-N-((R)-4-amino-1-(((2R,3S)-1-(((R)-4-amino-1-oxo-1-(((3S,6R,9R,12R,15S,18R,21R)-6,9,18-tris(2-aminoethyl)-3-((S)-1-hydroxyethyl)-12,15-diisobutyl-2,5,8,11,14,17,20-heptaoxo-1,4,7,10,13,16,19-heptaazacyclotricosan-21-yl)amino)butan-2-yl)amino)-3-hydroxy-1-oxobutan-2-yl)amino)-1-oxobutan-2-yl)-5-methylheptanamide]
- CNS status: Negative

Compound: C[C@@H](CN1CC(=O)NC(=O)C1)N1CC(=O)NC(=O)C1 (racemic) [Dexrazoxane, rac-(R)-4,4'-(propane-1,2-diyl)bis(piperazine-2,6-dione)]
- CNS status: Negative

Compound: C[C@H](N)[C@H](O)c1cccc(O)c1 (racemic) [Metaraminol, rac-3-((1R,2S)-2-amino-1-hydroxypropyl)phenol]
- CNS status: Negative

Compound: CC(C)CCCCC(=O)N[C@@H](CCN)C(=O)N[C@H](C(=O)N[C@@H](CCN)C(=O)N[C@H]1CCNC(=O)[C@H]([C@@H](C)O)NC(=O)[C@H](CCN)NC(=O)[C@H](CCN)NC(=O)[C@H](CC(C)C)NC(=O)[C@@H](Cc2ccccc2)NC(=O)[C@H](CCN)NC1=O)[C@@H](C)O (racemic) [Polymyxin B2, rac-N-((R)-4-amino-1-(((2R,3S)-1-(((R)-4-amino-1-oxo-1-(((3R,6R,9R,12R,15S,18R,21R)-6,9,18-tris(2-aminoethyl)-15-benzyl-3-((S)-1-hydroxyethyl)-12-isobutyl-2,5,8,11,14,17,20-heptaoxo-1,4,7,10,13,16,19-heptaazacyclotricosan-21-yl)amino)butan-2-yl)amino)-3-hydroxy-1-oxobutan-2-yl)amino)-1-oxobutan-2-yl)-6-methylheptanamide]
- CNS status: Negative

Compound: COC(=O)[C@H](c1ccccc1)[C@H]1CCCCN1 (racemic) [Ritalin, rac-methyl (R)-2-phenyl-2-((R)-piperidin-2-yl)acetate]
- CNS status: Positive

Compound: COC(=O)[C@H]1[C@@H](c2ccc(I)cc2)C[C@@H]2CC[C@H]1N2CCCF (racemic) [beta-CIT-FP, rac-methyl(1R,2S,3S,5S)-8-(3-fluoropropyl)-3-(4-iodophenyl)-8-azabicyclo[3.2.1]octane-2-carboxylate]
- CNS status: Positive

Compound: C[N+]1(CC2CC2)CC[C@]23c4c5ccc(O)c4O[C@H]2C(=O)CC[C@@]3(O)C1C5 (stereo in doubt) [Methylnaltrexone bromide, (3S,4S,4aS,7aR,12bS)-3-(cyclopropylmethyl)-4a,9-dihydroxy-3-methyl-7-oxo-2,3,4,4a,5,6,7,7a-octahydro-1H-4,12-methanobenzofuro[3,2-e]isoquinolin-3-ium]
- CNS status: Negative

Compound: CN1[C@H]2CC[C@@H]1[C@@H](C(=O)OCCF)[C@@H](c1ccc(I)cc1)C2 [2-FE-beta-CIT, (1R,2S,3S,5S)-2-fluoroethyl-3-(4-iodophenyl)-8-methyl-8-azabicyclo[3.2.1]octane-2-carboxylate]
- CNS status: Positive

Compound: CNc1ccc(-c2nc3ccc(O)cc3s2)cc1 [6-OH-BTA-1 (PiB), 2-(4-(Methylamino)phenyl)benzo[d]thiazol-6-ol]
- CNS status: Positive

Compound: CNc1ccc(-c2nc3ccc(O)cc3s2)cc1 [6-meO-BTA-0, 2-(4-(Methylamino)phenyl)benzo[d]thiazol-6-ol]
- CNS status: Negative

Compound: Cc1c2oc3c(C)ccc(C(=O)N[C@@H]4C(=O)N[C@H](C(C)C)C(=O)N5CCC[C@H]5C(=O)N(C)CC(=O)N(C)[C@@H](C(C)C)C(=O)O[C@@H]4C)c3nc-2c(C(=O)N[C@@H]2C(=O)N[C@H](C(C)C)C(=O)N3CCC[C@H]3C(=O)N(C)CC(=O)N(C)[C@@H](C(C)C)C(=O)O[C@@H]2C)c(N)c1=O [Actinomycin D] (I: T[dV]P[Sar][NMeV] / II: T[dV]P[Sar][NMeV]; ester I:1-I:C, II:1-II:C; linker I:N-II:N via Actinocin(9to1))
- CNS status: Efflux transporter substrate

Compound: O=C(c1ccc(F)cc1)C1CCN(CCn2c(=S)[nH]c3ccccc3c2=O)CC1 [Altanserin, 3-[2-[4-(4-fluorobenzoyl)piperidin-1-yl]ethyl]-2-sulfanylidene-1H-quinazolin-4-one]
- CNS status: Positive

Compound: CN(C(=O)C(c1ccccc1)c1ccccc1)[C@H](CN1CC[C@H](O)C1)c1ccccc1 [Asimadoline, N-{(1S)-2-[(3S)-3-Hydroxy-1-pyrrolidinyl]-1-phenylethyl}-Nmethyl-2,2-diphenylacetamide]
- CNS status: Efflux transporter substrate

Compound: CCOC(=O)c1ncn2c1CN(C)C(=O)c1cc(N=[N+]=[N-])ccc1-2 [Azidomazenil, Ethyl-8-azido-5-methyl-6-oxo-4H-imidazo[1,5-a][1,4]benzodiazepine-3-carboxylate]
- CNS status: Positive

Compound: CCCC(=O)OC1CCN(C)CC1 [BMP, 1-methylpiperidin-4-yl butyrate]
- CNS status: Positive

Compound: C(=N\NC1=NCCN1)/c1c2ccccc2c(/C=N/NC2=NCCN2)c2ccccc12 [Bisantrene, N-[(E)-[10-[(E)-(4,5-dihydro-1H-imidazol-2-ylhydrazinylidene)methyl]anthracen-9-yl]methylideneamino]-4,5-dihydro-1H-imidazol-2-amine]
- CNS status: Efflux transporter substrate

Compound: COC(=O)[C@H]1[C@@H](c2ccc(I)cc2)C[C@@H]2CC[C@H]1N2CCF [CIT-FE, (1R,2S,3S,5S)-methyl 8-(2-fluoroethyl)-3-(4-iodophenyl)-8-azabicyclo[3.2.1]octane-2-carboxylate]
- CNS status: Positive

Compound: CCOc1nc2cccc(C(=O)O)c2n1Cc1ccc(-c2ccccc2-c2nnn[nH]2)cc1 [Candesartan, 1-((2'-(2H-tetrazol-5-yl)-[1,1'-biphenyl]-4-yl)methyl)-2-ethoxy-1H-benzo[d]imidazole-7-carboxylic acid]
- CNS status: Negative

Compound: CC(C)NCC(O)COc1cccc2[nH]c3ccccc3c12 (centres unmarked) [Carazolol, 1-((9H-carbazol-4-yl)oxy)-3-(isopropylamino)propan-2-ol]
- CNS status: Positive

Compound: C[C@@](Cc1ccc(O)c(O)c1)(NN)C(=O)O [Carbidopa, (2S)-3-(3,4-Dihydroxyphenyl)-2-hydrazino-2-methylpropanoic acid]
- CNS status: Negative

Compound: Cc1ccc(-c2cc(C(F)(F)F)nn2-c2ccc(S(N)(=O)=O)cc2)cc1 [Celecoxib, 4-[5-(4-Methylphenyl)-3-(trifluoromethyl)-1H-pyrazol-1-yl]benzenesulfonamide]
- CNS status: Negative

Compound: CN/C(=N/CCSCc1nc[nH]c1C)NC#N [Cimetidine, 1-Cyano-2-methyl-3-(2-{[(4-methyl-1H-imidazol5-yl)methyl]sulfanyl}ethyl)guanidine]
- CNS status: Efflux transporter substrate

Compound: COc1ccc(OC)c(CN(C(C)=O)c2cc(F)ccc2Oc2ccccc2)c1 [DAA1106, N-(2,5-dimethoxybenzyl)-N-(5-fluoro-2-phenoxyphenyl)acetamide]
- CNS status: Positive

Compound: CN(C)Cc1ccccc1Sc1ccc(C#N)cc1N [DASB, 3-Amino-4-((2-((dimethylamino)methyl)phenyl)thio)benzonitrile]
- CNS status: Positive

Compound: COc1cccc2c1C(=O)c1c(O)c3c(c(O)c1C2=O)C[C@@](O)(C(C)=O)C[C@@H]3O[C@H]1C[C@H](N)[C@H](O)[C@H](C)O1 [Daunorubicin, (1S,3S)-3-Acetyl-3,5,12-trihydroxy-10-methoxy-6,11-dioxo-1,2,3,4,6,11-hexahydro-1-tetracenyl 3-amino-2,3,6-trideoxy-α-L-lyxo-hexopyranoside]
- CNS status: Efflux transporter substrate

Compound: COc1cccc2c1C(=O)c1c(O)c3c(c(O)c1C2=O)C[C@@](O)(C(=O)CO)C[C@@H]3O[C@H]1C[C@H](N)[C@H](O)[C@H](C)O1 [Doxorubicin, (1S,3S)-3-Glycoloyl-3,5,12-trihydroxy-10-methoxy-6,11-dioxo-1,2,3,4,6,11-hexahydro-1-tetracenyl 3-amino-2,3,6-trideoxy-α-L-lyxo-hexopyranoside]
- CNS status: Efflux transporter substrate

Compound: CCN(CC)C(=O)/C(C#N)=C/c1cc(O)c(O)c([N+](=O)[O-])c1 [Entacapone, (2E)-2-Cyano-3-(3,4-dihydroxy-5-nitrophenyl)-N,N-diethylacrylamide]
- CNS status: Negative

Compound: CCN1CCC[C@H]1CNC(=O)c1cc(I)cc(OC)c1OC [Epidepride, (S)-N-((1-ethylpyrrolidin-2-yl)methyl)-5-iodo-2,3-dimethoxybenzamide]
- CNS status: Positive

Compound: COc1cccc2c1C(=O)c1c(O)c3c(c(O)c1C2=O)C[C@@](O)(C(=O)CO)C[C@@H]3O[C@H]1C[C@H](N)[C@@H](O)[C@H](C)O1 [Epirubicin, (1S,3S)-3-Glycoloyl-3,5,12-trihydroxy-10-methoxy-6,11-dioxo-1,2,3,4,6,11-hexahydro-1-tetracenyl 3-amino-2,3,6-trideoxy-α-L-arabino-hexopyranoside]
- CNS status: Efflux transporter substrate

Compound: C#Cc1cccc(Nc2ncnc3cc(OCCOC)c(OCCOC)cc23)c1 [Erlotinib, N-(3-Ethynylphenyl)-6,7-bis(2-methoxyethoxy)-4-quinazolinamine]
- CNS status: Efflux transporter substrate

Compound: CCOC(=O)c1cncn1[C@H](C)c1ccccc1 [Etomidate, (R)-ethyl 1-(1-phenylethyl)-1H-imidazole-5-carboxylate]
- CNS status: Positive
